Assay results taken from US10655140B2, “Herbicide-resistant protein, encoding gene and use thereof” (BEIJING DABEINONG BIOTECHNOLOGY CO., LTD., priority 2015, dated 2020).

How the values were obtained:
[1] = test system: Arabidopsis T1 plants transformed with 24DT22 nucleotide sequence, control nucleotide sequence and wild-type Arabidopsis plants; assay: Herbicide resistance effect test of transgenic Arabidopsis T1 plants (spraying); format: in vivo, Arabidopsis thaliana; settings: Arabidopsis genotype 24DT22; for High resistant (number of plants): 560 g ae/ha (1-fold field concentration), growth consistent with blank solvent 7 days after spraying; for Moderate resistant (number of plants): curly rosette leaves 7 days after spraying; for Low resistant (number of plants): incapable of bolting 14 days after spraying
Text: 24DT22 gene was used to transform Arabidopsis for the first time. At first, T1 transformants were selected from the background of un-transformed seeds, using glufosinate-ammonium selection scheme. About 20000 T1 seeds are screened among which 314 strains of T1 generation positive transformants (PAT gene) were identified, i.e. the transformation efficiency was about 1.6%. Herbicide resistance effect tests to 2,4-D dimethyl ammonium salt and agroxone of Arabidopsis T1 plants transformed with 24DT22 nucleotide sequence, control nucleotide sequence respectively and wild-type Arabidopsis plants were performed after 18 days of planting.
Arabidopsis T1 plants transformed with 24DT22 nucleotide sequence, control nucleotide sequence respectively and wild-type Arabidopsis plants were sprayed with 2,4-D dimethyl ammonium salt (560 g ae/ha, 1-fold concentration in field), agroxone (560 g ae/ha, 1-fold concentration in field) and blank solvent (water). Resistance conditions of the plants were counted 7 days and 14 days after spraying. Plants with growth conditions consistent with blank solvent (water) 7 days after spaying were classified as highly resistant plants; Plants with curly rosette leaves 7 days after spaying were classified as moderately resistant plants; Plants incapable of bolting 14 days after spaying were classified as low-resistant plants and the dead plants 14 days after spaying were classified as non-resistant plants. Because each Arabidopsis T1 plant is an independent transformation event, significant differences of individual T1 responses can be expected under a given dose.

[2] = test system: Corn plants containing 24DT22 nucleotide sequence, control nucleotide sequence and wild type corn plants; assay: Herbicide-resistance effect test of transgenic corn T1 plants (prop/brace root development); format: in vivo, corn (Zong 31); settings: 21 days after spraying
Procedure: Herbicide resistance effects tests to 2,4-D dimethyl ammonium salt and agroxone of corn plants containing 24DT22 nucleotide sequence, control nucleotide sequence respectively and wild type corn plants (stages V3-V4) were performed respectively.
Corn plants containing 24DT22 nucleotide sequence, control nucleotide sequence respectively and wild type corn plants were taken and spayed with 2,4-D dimethyl ammonium salt (8960 g ae/ha, 16-folds concentration in field), agroxone (8960 g ae/ha, 16-folds concentration in field) and blank solvent (water) respectively. Prop root development was counted 21 days after spaying. Three strains (S6, S7 and S8) of corn plants transformed with 24DT22 nucleotide sequence, two strains (S9 and S10) of corn plants transformed with control nucleotide sequence and 1 strain of wild type (CK2) corn were selected and 10-15 plants from each stain were tested.

[3] = test system: Soybean plants containing 24DT22 nucleotide sequence, control nucleotide sequence and wild type soybean plants; assay: Herbicide resistance effect test of transgenic soybean T1 plants (spraying, damage degree); format: in vivo, soybean (Zhonghuang 13); settings: for Average damage % 6HAT: 6 hours after spraying; for Average damage % 2DAT: 2 days after spraying
Procedure: Herbicide resistance effects tests to 2,4-D dimethyl ammonium salt and agroxone of soybean plants containing 24DT22 nucleotide sequence and control nucleotide sequence respectively and wild type soybean plants (stages V3-V4) were performed respectively.
Soybean plants containing 24DT22 nucleotide sequence, control nucleotide sequence and wild type soybean plants were taken and spayed with 2,4-D dimethyl ammonium salt (2240 g ae/ha, four-folds concentration in field), agroxone (2240 g ae/ha, four-folds concentration in field) and blank solvent (water). Take statistics of the damage degree of each plant caused by herbicides according to the curling degree of leaves and the damage degree of growing point six hours ([…]), two days (2DAT), seven days (7DAT) and 14 days (14DAT) after spraying respectively: if leaves are flat like wild-type leaves and the growing point is intact, the damage degree is 0%; if leaves curl up and wilt and the growing point is died, the damage degree is 100%. There are three strains contained a transferred 24DT22 nucleotide sequence (S1, S2 and S3), two strains contained a transferred control sequence (S4 and S5) and one wild-type strain (CK1) in total; select 10-15 plants from each strain for testing.

[4] = corn strain S8 (24DT22), 8960 g ae/ha
[5] = soybean strain S1 (24DT22), 2240 g ae/ha (4-fold field concentration)
[6] = soybean strain S2 (24DT22), 2240 g ae/ha
[7] = soybean strain S3 (24DT22), 2240 g ae/ha

Structure (SMILES)	High resistant (number of plants) [1]	Moderate resistant (number of plants) ([1]; 560 g ae/ha)	Non-resistant (number of plants) ([1]; 560 g ae/ha, dead 14 days after spraying)	Low resistant (number of plants) ([1]; 560 g ae/ha)	Abnormal development of brace roots (number of plants) ([2]; corn strain CK2 (wild type), 8960 g ae/ha)	Normal development of brace roots (number of plants) [2, 4]	Average damage % 6HAT [3, 5] [%]	Average damage % 6HAT [3, 6] [%]	Average damage % 6HAT [3, 7] [%]	Average damage % 2DAT [3, 7] [%]	Normal development of brace roots (number of plants) ([2]; corn strain S6 (24DT22), 8960 g ae/ha (16-fold field concentration))	Normal development of brace roots (number of plants) ([2]; corn strain S7 (24DT22), 8960 g ae/ha)	Abnormal development of brace roots (number of plants) ([2]; corn strain S10 (control sequence), 8960 g ae/ha)	Average damage % 2DAT [3, 6] [%]	Average damage % 7DAT ([3]; soybean strain S2 (24DT22), 2240 g ae/ha, 7 days after spraying) [%]
CNC.O=C(O)COc1ccc(Cl)cc1Cl [2,4-D dimethyl ammonium salt]	28	1	0	2	15	10	6	11	3	0	–	–	–	–	–
Cc1cc(Cl)ccc1OCC(=O)O [agroxone]	25	3	–	1	–	13	10	16	7	4	13	14	11	11	6
